Experimental data reported in publication PMC7884679 (British Journal of Cancer, 2020).
Entries after “also recorded” stand apart in the source; their conditions may differ.

Legend:
clinical = conditions: human, in vivo; for AUC(0-t): AUC0–12; for AUC(0-inf): AUC0–∞; for Vd/F: Vz/f
Protocol: (§1) Safety was assessed through the recording, reporting and analysis of baseline medical conditions, AEs, physical examination findings (including vital signs and monitoring for bleeding), laboratory tests, ECOG PS and 12-lead electrocardiograms. […] PK was assessed using blood samples collected pre-treatment and on-treatment. […] Tumour response was evaluated according to RECIST (v1.1). Target and non-target lesions were measured by computed tomography or magnetic resonance imaging every 6 weeks.
The cut-off for the final analysis was when the last patient completed the dose-escalation phase (29 June 2017). The All Patients Analysis Set comprised all patients who provided informed consent (screening failures plus enrolled patients) and was used to describe patient disposition and deaths. […] The Efficacy Analysis Set, including patients who received at least one treatment dose, was used for all efficacy summaries. […] The Biomarker/Pharmacogenomics Analysis Set included patients who received at least the first dose of study drug and provided at least one pre-dose sample and one post-dose sample.

[1] = tested on: patients with advanced solid tumours; assay: Safety and tolerability: treatment-emergent adverse events (CTCAE v4.03); assay type: in vivo
Protocol: (§2) In addition, a DLT could be identified by the SMC as any TEAE that impaired daily function or abnormality occurring in patients treated with peposertib at any time during the dose escalation part of the study.
as §1
(§3) TEAEs were summarised according to Medical Dictionary for Regulatory Activities (v20.0) preferred term and system organ class. All statistical analyses (except for PK) were performed using SAS 9.1.3 or higher. Tumour assessments, based on investigator evaluations of target, non-target and new lesions according to RECIST (v1.1), were used to derive the best overall response. Trial data were summarised by dose level.

[2] = tested on: patients with advanced solid tumours; assay: Dose escalation 3 + 3: DLT, MTD, RP2D; assay type: in vivo
Description: Dose escalation was by use of a standard ‘3 + 3’ design, based on the presence/absence of dose-limiting toxicities (DLTs). […] The starting dose was considered to have acceptable safety and to be in the range of the biologically active dose based on in vivo pharmacology data.[7]
The MTD was defined as the dose level below the dose at which two out of six patients experienced a DLT. Once the MTD was established, the RP2D was to be defined by the Safety Monitoring Committee (SMC), either at the MTD level or below, depending on the available safety, efficacy, PK and PD data.
as §2

advanced solid tumours = assay: Tumour response by RECIST v1.1; assay type: in vivo, human
Protocol: as §1, §3

human cyclooxygenase 1 = target: T1, human cyclooxygenase 1 (Homo sapiens, UniProt P23219); assay: Platelet aggregation in aspirin-naïve patients at the RP2D; assay type: in vivo; conditions: aspirin-naïve cohort, 400 mg BID
T1 construct: endogenous in cells; host or cells: platelets of aspirin-naïve patients treated at the RP2D
T1 sequence (P23219 24-599): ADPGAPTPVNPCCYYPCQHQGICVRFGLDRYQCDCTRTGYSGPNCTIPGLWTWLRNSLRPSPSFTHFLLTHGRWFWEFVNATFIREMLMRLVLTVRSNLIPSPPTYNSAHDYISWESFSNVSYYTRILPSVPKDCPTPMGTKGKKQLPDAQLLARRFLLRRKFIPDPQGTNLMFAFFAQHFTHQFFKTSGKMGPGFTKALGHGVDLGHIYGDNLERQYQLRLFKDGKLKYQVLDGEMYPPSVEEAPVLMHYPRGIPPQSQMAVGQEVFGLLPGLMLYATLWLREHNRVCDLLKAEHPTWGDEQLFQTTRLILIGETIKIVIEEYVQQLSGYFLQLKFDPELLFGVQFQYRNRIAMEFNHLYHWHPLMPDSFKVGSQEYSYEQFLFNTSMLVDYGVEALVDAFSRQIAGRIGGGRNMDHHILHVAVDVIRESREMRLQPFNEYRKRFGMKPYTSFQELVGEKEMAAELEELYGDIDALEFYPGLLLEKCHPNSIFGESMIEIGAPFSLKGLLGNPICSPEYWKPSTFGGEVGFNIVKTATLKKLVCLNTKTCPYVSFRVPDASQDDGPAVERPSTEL

DNA-PK = conditions: preclinical ref 6–8; cited from earlier work
PI3K lipid kinases = tested on: PI3K lipid kinases; parameters: method as in PMID 32220971; conditions: cited from earlier work
phosphorylation of AKT = tested on: phosphorylation of AKT; parameters: method as in PMID 32220971; conditions: preclinical experiments ref 8; cited from earlier work
platelet aggregation = conditions: preclinical data; cited from earlier work
[3] = tested on: repair of radiation- or chemotherapy-induced DNA DSBs; conditions: preclinical studies ref 6–10; cited from earlier work

SMILES: COc1ccc([C@@H](O)c2cc(-c3ncnc4cc(N5CCOCC5)ccc34)c(F)cc2Cl)nn1 [Peposertib, peposertib]
- Tmax (clinical): 1.5 h
- geometric mean percent coefficient of variation (%CV) for Cmax (clinical): 15.5–117%
- AUC(0-t) (clinical; 100 mg): 2290 ng·h/mL
- AUC(0-inf) (clinical; 100 mg): 2920 ng·h/mL
- Cmax (clinical; 100 mg): 440 ng/mL
- Vd/F (clinical; 100 mg): 276 L
- half-life (clinical; 100 mg, t1/2): 5.5 h
- Tmax (clinical; 100 mg, tmax): 1.8 h
- AUC(0-t) (clinical; 150 mg): 3040 ng·h/mL
- AUC(0-inf) (clinical; 150 mg): 3770 ng·h/mL
- Cmax (clinical; 150 mg): 695 ng/mL
- Vd/F (clinical; 150 mg): 304 L
- half-life (clinical; 150 mg, t1/2): 5.1 h
- Tmax (clinical; 200 mg, tmax): 1.4 h
- Vd/F (clinical; 300 mg): 662 L
- half-life (clinical; 300 mg, t1/2): 4.7 h
- Tmax (clinical; 300 mg, tmax): 1.9 h
- AUC(0-inf) (clinical; 400 mg): 4140 ng·h/mL
- Tmax (clinical; 400 mg, tmax): 2.4 h
- half-life (clinical; mean elimination half-life): ~5.5 h
- Tmax (clinical; po, median tmax): 1.1 to 2.5 h
- Number of patients with: Any TEAE leading to death ([1]; 100/QD n = 3): 0 (0) n (%)
- Number of patients with: Any peposertib related TEAE leading to death ([1]; 100/QD n = 3): 0 (0) n (%)
- Number of patients with: Any TEAE leading to death ([1]; 150/BID n = 3): 0 (0) n (%)
- Number of patients with: Any peposertib related TEAE leading to death ([1]; 150/BID n = 3): 0 (0) n (%)
- Number of patients with: Any TEAE leading to death ([1]; 200/BID n = 3): 0 (0) n (%)
- Number of patients with: Any peposertib related TEAE leading to death ([1]; 200/BID n = 3): 0 (0) n (%)
- Number of patients with: Any TEAE leading to death ([1]; 200/QD n = 3): 0 (0) n (%)
- Number of patients with: Any peposertib related TEAE leading to death ([1]; 200/QD n = 3): 0 (0) n (%)
- Number of patients with: Any TEAE leading to death ([1]; 300/BID n = 9): 0 (0) n (%)
- Number of patients with: Any peposertib related TEAE leading to death ([1]; 300/BID n = 9): 0 (0) n (%)
- Number of patients with: Any TEAE leading to death ([1]; 400/BID (RP2D) n = 6): 0 (0) n (%)
- Number of patients with: Any peposertib related TEAE leading to death ([1]; 400/BID (RP2D) n = 6): 0 (0) n (%)
- Number of patients with: Any TEAE leading to death ([1]; 400/BID n = 4): 1 (25) n (%)
- Number of patients with: Any peposertib related TEAE leading to death ([1]; 400/BID n = 4): 0 (0) n (%)
- Number of patients with: Any TEAE leading to death ([1]; Total N = 31): 1 (3) n (%)
- Number of patients with: Any peposertib related TEAE leading to death ([1]; Total N = 31): 0 (0) n (%)
- Grade 3 peposertib-related maculo-papular rash, patients ([1]; human, in vivo): 4 n
- Grade 3 peposertib-related nausea, patients ([1]; human, in vivo): 2 n
- Number of patients with: Any peposertib-related Grade ≥4 TEAE ([1]; human, in vivo): 0 (0) n (%)
- TEAE constipation, patients ([1]; human, in vivo): 10 n
- TEAE fatigue, patients ([1]; human, in vivo): 14 n
- TEAE nausea, patients ([1]; human, in vivo): 17 n
- TEAE pyrexia, patients ([1]; human, in vivo): 11 n
- Treatment-related TEAE: Constipation, Grade 3 ([1]; human, in vivo): 0 (0) n (%)
- Treatment-related TEAE: Decreased appetite, Grade 3 ([1]; human, in vivo): 0 (0) n (%)
- Treatment-related TEAE: Diarrhoea, Grade 3 ([1]; human, in vivo): 0 (0) n (%)
- Treatment-related TEAE: Dry mouth, Grade 3 ([1]; human, in vivo): 0 (0) n (%)
- Treatment-related TEAE: Periorbital oedema, Grade 3 ([1]; human, in vivo): 0 (0) n (%)
- Treatment-related TEAE: Vomiting, Grade 3 ([1]; human, in vivo): 0 (0) n (%)
- patients with a serious TEAE ([1]; human, in vivo): 55%
- patients with at least one TEAE ([1]; human, in vivo): 31 patients
- patients with at least one TEAE of Grade ≥3 ([1]; human, in vivo): 68%
- patients with peposertib-related Grade 3 TEAEs ([1]; human, in vivo): 23%
- peposertib-related Grade 4 TEAEs ([1]; human, in vivo): no peposertib-related Grade 4 TEAEs
- deaths considered treatment-related ([1]; three patients died due to disease progression): None
- maximum-tolerated dose (MTD) ([2]; dose escalation up to 400 mg BID): not reached
- recommended phase 2 dose (RP2D) ([2]; human, in vivo, 21 days): 400 mg BID
- patients with stable disease for ≥12 weeks (advanced solid tumours; RECIST v1.1): seven
- objective tumour responses (complete or partial) (advanced solid tumours; RECIST v1.1, all doses): No objective tumour responses
- duration of stable disease (advanced solid tumours; one patient, metastatic hepatocellular carcinoma, prior progression on sorafenib, at data cut-off): 69 weeks
- patients not evaluable (advanced solid tumours; tumour assessment at screening only): 16%
- time remained on treatment (advanced solid tumours; two patients (metastatic renal cell carcinoma; tonsillar squamous cell carcinoma), 400 mg BID): 36 weeks
- effect on platelet aggregation (human cyclooxygenase 1): very weak effect; also recorded: only a weak effect
- concentrations blocking DNA-PK kinase activity (DNA-PK): sub-nanomolar
- potency on PI3K lipid kinases (PI3K lipid kinases; compared with DNA-PK, preclinical studies ref 8): significantly lower potency
- potency against DNA-PK versus other PI3K and PI3K-related family members (PI3K lipid kinases; preclinical ref 8): substantially greater
- inhibition of the phosphorylation of AKT (phosphorylation of AKT): only moderate inhibition
- inhibition of platelet aggregation (platelet aggregation): reversible inhibition of platelet aggregation at micromolar concentrations
- synergy with radiotherapy and DSB-inducing chemotherapies (e.g. etoposide, doxorubicin) [3]: demonstrated synergy
